Reference: patent US10368545B2, “Substituted 2-thioimidazolylcarboxamides as pesticides” (BAYER CROPSCIENCE AKTIENGESELLSCHAFT, priority 2015, dated 2019)
Several values for one entry are separate records, joined by “and”; a condition that tells them apart may be missing. Equal values may be shown once. Read-outs that look alike come from different tables or passages of the source.

What was measured:
[1] = log P by HPLC on reversed-phase C18 columns (OECD Guideline 117); type: physicochemical; settings: for chromatographic logP: reversed-phase C18 HPLC column; for logP[a]: method [a]; for logP[b]: method [b]; for log P[a]: acidic range; for log P[n]: neutral range
Procedure: The log P values were determined in accordance with OECD Guideline 117 (EC Directive 92/69/EEC) by HPLC (high-performance liquid chromatography) using reversed-phase (RP) columns (C18), by the following methods:
[a] The LC-MS determination in the acidic range was carried out at pH 2.7 with 0.1% aqueous formic acid and acetonitrile (contains 0.1% formic acid) as mobile phases; linear gradient from 10% acetonitrile to 95% acetonitrile.
[b] LC-MS determination in the neutral range was carried out at pH 7.8 with 0.001 molar aqueous ammonium hydrogencarbonate solution and acetonitrile as mobile phases; linear gradient from 10% acetonitrile to 95% acetonitrile.

[2] = test system: green peach aphid (Myzus persicae); assay: Myzus persicae spray test (Chinese cabbage leaf discs); type: in vivo; settings: application rate 500 g/ha, after 5 or 6 days, Chinese cabbage leaf discs
Procedure: Myzus persicae—Spray Test
Solvent: 78 parts by weight of acetone • • 1.5 parts by weight of dimethylformamide
Emulsifier: alkylaryl polyglycol ether
To produce a suitable active compound preparation, 1 part by weight of active compound is dissolved using the stated parts by weight of solvent and made up with water containing an emulsifier concentration of 1000 ppm until the desired concentration is attained. To produce further test concentrations, the preparation is diluted with emulsifier-containing water.
Discs of Chinese cabbage leaves (Brassica pekinensis) infested by all stages of the green peach aphid (Myzus persicae) are sprayed with an active compound preparation of the desired concentration.
After 5 or 6 days, the efficacy in % is determined. 100% means that all the aphids were killed; 0% means that no aphids were killed.

[3] = pH 2.7, acidic range, pH 2.7, 0.1% aqueous formic acid / acetonitrile, read-out: log P[a]
[4] = pH 2.7, method [a], read-out: logP[a]
[5] = pH 7.8, method [b], read-out: logP[b]
[6] = pH 2.7, 0.1% aqueous formic acid / acetonitrile
[7] = pH 7.8, 0.001 molar aqueous ammonium hydrogencarbonate / acetonitrile

logP[a] [1]	logP[b] [1]	SMILES	efficacy (aphids killed) [2] [%]	also measured
–	–	CN(C(=O)c1cncn1Cc1ccccc1)c1cccnc1 [1-benzyl-N-methyl-N-(pyridin-3-yl)-1H-imidazole-5-carboxamide]	–	chromatographic logP [1, 3]: 0.85; chromatographic logP ([1]; pH 7.8, neutral range, pH 7.8, 0.001 molar aqueous ammonium hydrogencarbonate / acetonitrile, read-out: log P[n]): 1.4
1.25	1.31	CN(C(=O)c1c(Br)nc(Sc2ncccn2)n1C)c1cccnc1 [I-A-13]	–	–
1.68	1.78	CN(C(=O)c1cnc(Sc2ccccc2[N+](=O)[O-])n1C)c1cccnc1 [I-A-16]	90	–
1.89	2.26	CN(C(=O)c1cnc(SC2CCCCC2)n1C)c1cccnc1 [I-A-17]	–	–
0.67 and 0.71	–	CC(=O)CSc1ncc(C(=O)N(C)c2cccnc2)n1C [I-A-23]	90	–
1.20	1.34	CCOC(=O)CSc1ncc(C(=O)N(C)c2cccnc2)n1C [I-A-24]	90	–
0.88	1.09	COC(=O)CSc1ncc(C(=O)N(C)c2cccnc2)n1C [I-A-25]	90	–
1.53	1.78	CN(C(=O)c1cnc(SCC(=O)C(C)(C)C)n1C)c1cccnc1 [I-A-28]	90	–
0.28	1.05	CN(C(=O)c1cnc(SCC(=O)O)n1C)c1cccnc1 [I-A-29]	–	–
0.97	1.28	CN(C(=O)c1cnc(SCC(=O)C2CC2)n1C)c1cccnc1 [I-A-31]	90	–
0.11	0.50	CN(C(=O)c1cnc(SCC(N)=O)n1C)c1cccnc1 [I-A-32]	–	–
–	–	CNC(=O)CSc1ncc(C(=O)N(C)c2cccnc2)n1C [I-A-33]	–	chromatographic logP [1, 4]: 0.33; chromatographic logP [1, 5]: 0.62
0.59	0.81	CN(C)C(=O)CSc1ncc(C(=O)N(C)c2cccnc2)n1C [I-A-34]	–	–
0.71	1.54	CCSc1ncc(C(=O)Nc2cccnc2)n1C [I-A-41]	90	–
0.35	0.55	CNC(=O)CS(=O)(=O)c1ncc(C(=O)N(C)c2cccnc2)n1C [I-A-42]	–	–
2.75	2.92	CN(C(=O)c1cnc(Sc2ccc(C(C)(C)C)cc2)n1C)c1cccnc1 [I-A-63]	–	–
1.17	1.25	CN(C)C(=O)c1ccccc1Sc1ncc(C(=O)N(C)c2cccnc2)n1C [I-A-67]	90	–
1.71	1.77	CN(C(=O)c1cnc(Sc2cccc([N+](=O)[O-])c2)n1C)c1cccnc1 [I-A-68]	100	–
1.59	1.74	COc1ccccc1Sc1ncc(C(=O)N(C)c2cccnc2)n1C [I-A-72]	–	–
1.81	1.87	CN(C(=O)c1cnc(S(=O)(=O)c2cccc(Cl)c2)n1C)c1cccnc1 [I-A-73]	90	–

logP[a] [1]	logP[b] [1]	SMILES	efficacy (aphids killed) [2] [%]	also measured
1.45	1.55	CN(C(=O)c1cnc([S+]([O-])c2cccc(Cl)c2)n1C)c1cccnc1 (centres unmarked) [I-A-74]	90	–
2.14	2.19	CN(C(=O)c1cnc([S+]([O-])c2ccc(C(C)(C)C)cc2)n1C)c1cccnc1 (centres unmarked) [I-A-75]	90	–
2.53	2.55	CN(C(=O)c1cnc(S(=O)(=O)c2ccc(C(C)(C)C)cc2)n1C)c1cccnc1 [I-A-76]	–	–
1.53	1.58	COc1ccc(S(=O)(=O)c2ncc(C(=O)N(C)c3cccnc3)n2C)cc1 [I-A-81]	–	–
–	–	CN(C(=O)c1cnc(S(=O)(=O)c2ccc(F)cc2)n1C)c1ccc[n+]([O-])c1 [I-A-83]	–	chromatographic logP [1, 4]: 1.12; chromatographic logP [1, 5]: 1.23; pest or weed control at 500 g/ha ([2]; Myzus persicae, foliar, read-out: efficacy (aphids killed)): 90%
1.01	1.10	CN(C(=O)c1cnc(S(=O)(=O)c2ccccn2)n1C)c1cccnc1 [I-A-85]	–	–
1.37	1.47	CN(C(=O)c1cnc(S(=O)(=O)c2ccccc2)n1C)c1cccnc1 [I-A-88]	–	–
1.58	1.68	CN(C(=O)c1cnc(S(=O)(=O)c2ccc([N+](=O)[O-])cc2)n1C)c1cccnc1 [I-A-90]	–	–
0.76	0.96	CN(C)C(=O)c1cccc([S+]([O-])c2ncc(C(=O)N(C)c3cccnc3)n2C)c1 (centres unmarked) [I-A-91]	–	–
1.12	1.29	CN(C)C(=O)c1ccccc1S(=O)(=O)c1ncc(C(=O)N(C)c2cccnc2)n1C [I-A-92]	–	–
1.04	1.22	CCN(C(=O)c1cnc(Sc2ncccn2)n1C)c1cccnc1 [I-A-98]	90	–
1.23	–	Cc1cnc(Sc2ncc(C(=O)N(C)c3cccnc3)n2C)nc1C [I-A-103]	100	–
–	–	CN(C(=O)c1cnc(Sc2ncccn2)n1Cc1ccccc1)c1cccnc1 [I-A-111, 1-benzyl-N-methyl-N-(pyridin-3-yl)-2-(pyrimidin-2-ylsulphanyl)-1H-imidazole-5-carboxamide]	–	chromatographic logP [1, 4]: 1.73; chromatographic logP [1, 5]: 1.78
0.20	0.85	CN(C(=O)c1cnc(SCc2cncn2C)n1C)c1cccnc1 [I-A-114]	–	–
0.76	1.12	CN(C(=O)c1cnc(SCc2ccn(C)n2)n1C)c1cccnc1 [I-A-115]	–	–
–	0.89	CN(C(=O)c1cnc(SCc2nccn2C)n1C)c1cccnc1 [I-A-118]	–	–
0.39	1.15	CN(C(=O)c1cnc(SCc2cccnc2)n1C)c1cccnc1 [I-A-119]	90	–
1.34	1.55	CN(C(=O)c1cnc(SCc2ccco2)n1C)c1cccnc1 [I-A-120]	90	–
2.51	2.62	CN(C(=O)c1cnc(SCc2ccc(Cl)c(Cl)c2)n1C)c1cccnc1 [I-A-121]	–	–
1.69	1.92	CN(C(=O)c1cnc(SCc2c(F)cccc2F)n1C)c1cccnc1 [I-A-123]	90	–

logP[a] [1]	logP[b] [1]	SMILES	efficacy (aphids killed) [2] [%]	also measured
1.72	2.03	COc1cccc(F)c1CSc1ncc(C(=O)N(C)c2cccnc2)n1C [I-A-124]	90	–
1.89	2.09	CN(C(=O)c1cnc(SCc2c(F)cccc2Cl)n1C)c1cccnc1 [I-A-127]	90	–
2.32	2.44	Cc1cccc(C)c1CSc1ncc(C(=O)N(C)c2cccnc2)n1C [I-A-129]	–	–
1.28	1.40	Cc1cc([N+](=O)[O-])nn1CSc1ncc(C(=O)N(C)c2cccnc2)n1C [I-A-131]	90	–
0.59	0.94	CN(C(=O)c1cnc(SCC(=O)NC2CC2)n1C)c1cccnc1 [I-A-132]	90	–
1.06	1.22	COC(=O)C(C)(C)NC(=O)CSc1ncc(C(=O)N(C)c2cccnc2)n1C [I-A-133]	–	–
1.12	1.27	COC(=O)c1cnc(Sc2ncc(C(=O)N(C)c3cccnc3)n2C)n1C [I-A-143]	–	–
–	–	Cc1cc(C)nc(Sc2ncc(C(=O)O)n2C)n1 [IV-1]	–	log P[a] [1, 6]: 0.81
–	–	Cn1c(C(=O)O)cnc1SCC1CC1 [IV-2]	–	log P[a] [1, 6]: 0.62; log P[n] [1, 7]: −0.18
–	–	Cn1c(C(=O)O)cnc1Br [IX-1, 1-methyl-2-bromoimidazole-5-carboxylic acid]	–	chromatographic logP [1, 3]: 0.31
–	–	COC(=O)c1cnc(Sc2nc(C)cc(C)n2)n1C [VIII-1]	–	log P[a] [1, 6]: 1.78; log P[n] [1, 7]: 1.80
–	–	COC(=O)c1cnc(SCC2CC2)n1C [VIII-2]	–	log P[a] [1, 6]: 2.06; log P[n] [1, 7]: 2.26
–	–	CN(C(=O)c1cnc(Br)n1C)c1cccnc1 [XI-1]	–	log P[a] [1, 6]: 0.65; log P[n] [1, 7]: 0.93
–	–	Cn1cc(C(=O)O)nc1Br [XIX-1, 2-bromo-1-methyl-1H-imidazole-4-carboxylic acid]	–	chromatographic logP [1, 3]: 0
–	–	CN(C(=O)c1cncn1C)c1cccnc1 [XV-1]	–	log P[n] [1, 7]: 0.42
–	–	Cn1cnc(C(=O)OC(C)(C)C)c1 [XVII-1, tert-butyl 1-methyl-1H-imidazole-4-carboxylate]	–	chromatographic logP [1, 3]: 0.74
–	–	Cn1cc(C(=O)OC(C)(C)C)nc1Br [XVIII-1, tert-butyl 2-bromo-1-methyl-1H-imidazole-4-carboxylate]	–	chromatographic logP [1, 3]: 1.27
–	–	CN(C(=O)c1cn(C)c(Br)n1)c1cccnc1 [XXI-1]	–	log P[n] [1, 7]: 0.76
